Data as given in US10294234B2, “HIV inhibitor compounds” (priority 2017, dated 2019).

Columns and labels:
[1] = tested on: HIV-1 (IIIB) in MT-4 cells; assay: MT-4 HIV High Resolution Antiviral Assay; assay type: cell-based
Procedure: Compounds were tested in a high-throughput 384-well assay format for their ability to inhibit the replication of HIV-1 (IIIB) in MT-4 cells. Compounds were serially diluted (1:3) in DMSO on 384-well polypropylene plates and further diluted 200-fold into complete RPMI media (10% FBS, 1% P/S) using the Biotek Micro Flow and Agilent ECHO acoustic dispenser. Each plate contained up to 8 test compounds, with negative (No Drug Control) and 5 uM AZT positive controls. MT-4 cells were pre-infected with 10 uL of either RPMI (mock-infected) or a fresh 1:250 dilution of an HIV-1 (IIIB) concentrated virus stock. Infected and uninfected MT-4 cells were further diluted in complete RPMI media and added to each plate using a Micro Flow dispenser. After 5 days incubation in a humidified and temperature controlled incubator (37° C.), Cell Titer Glo (Promega) was added to the assay plates to quantify the amount of luciferase. EC50 and CC50 values were defined as the compound concentration that causes a 50% decrease in luminescence signal, and were calculated using a sigmoidal dose-response model to generate curve fits.
(§1) MT-4 HIV High Resolution Antiviral Assay
(§2) Assay protocol is identical to that described for the MT-4 antiviral assay with the following changes: Each drug is run in 2 series of quadruplicates with different starting concentrations for each series and 19 1.5 fold dilutions performed across the plate. […] Data is analyzed and Hill coefficients determined in Graph Pad Prism (San Diego, Calif.). EC95s were determined by the formula EC95=(19)^I/hill coefficient×EC50. HD values were determined for certain compounds and reported in Table 5 below as an illustrative example.

[2] = in vivo
Procedure: Pharmacokinetic Profiling Dog PK
Each dosing group consisted of three non-naïve male beagle dogs. At dosing, the animals weighed between 9 to 12 kg. The animals were fasted overnight prior to dose administration and up to four hours after dosing. The test article was administered by intravenous infusion over 30-minutes. The rate of infusion was adjusted according to the body weight of each animal to deliver a dose of 0.5 or 1.0 mg/kg. For the oral dosing group, the test article was administered by oral gavage at a dose volume of 2 mL/kg.
Serial venous blood samples (approximately 1.0 mL each) were collected at predose and 0.25, 0.48, 0.58, 0.75, 1.0, 1.5, 2, 4, 8, 12 and 24 hours post dose from each animal for the IV dosing group; blood samples were collected at predose, 0.25, 0.50, 1, 2 4, 6, 8,12 and 24 hours post dose for the oral dosing group. The blood samples were collected into Vacutainer™ tubes containing EDTA-K2 as the anti-coagulant and were immediately placed on wet ice pending centrifugation for plasma. An LC/MS/MS method was used to measure the concentration of test compound in plasma. Non-compartmental pharmacokinetic analysis was performed on the plasma concentration-time data. VSS=apparent volume of distribution, t1/2=half life, F=oral bioavailability.

[3] = target: recombinant HIV protease (Human immunodeficiency virus type 1 group M subtype B, UniProt P04585); assay: biochemical
Procedure: Inhibitor potency was measured using an enzymatic assay with a fluorogenic readout. […] After a 20-minute pre-incubation, the enzymatic reaction was initiated by the addition of the fluorogenic substrate (2-aminobenzoyl)Thr-Ile-Nle-(p-nitro)Phe-Gln-Arg (Bachem) to a final concentration of 40 μM. The total volume of the assay solution was 100 µL. The reaction was measured over 20 minutes on a Tecan Infinite M1000 plate reader using an excitation wavelength of 320 nm and a detection wavelength of 420 nm. The slopes of the progress curves were the measure of reaction rates.

[4] = in vivo; conditions: rat, in vivo
Method in brief: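 Male SD rats (n=3/group, 0.27–0.32 kg), fasted overnight, given 0.5 or 1.0 mg/kg by 30-min IV infusion, or by oral gavage. Serial plasma samples (EDTA-K2) over 24 h measured by LC/MS/MS; non-compartmental PK analysis.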

[5] = tested on: HIV-1 (IIIB) in MT-4 cells; assay: Protein adjusted EC95 (high resolution antiviral assay with equilibrium dialysis plasma protein binding); assay type: cell-based; conditions: EC95 adjusted for plasma protein binding (10% plasma vs cell culture media)
Procedure: as §1, §2
Equilibrium Dialysis Assay
Pooled plasma (from at least 3 males and 3 females) was from Bioreclamation IVT. Sodium EDTA was used as the anticoagulant. 10% plasma was diluted in 0.133M phosphate buffer consisted of 1.5% (w/v) Sodium EDTA.
RPMI cell culture media consisted 10% FBS was provided by biology department, Gilead Sciences, Inc.
Plasma Protein Binding Assay:
Studies were conducted in duplicate or triplicate using a Dianorm Equilibrium Dialyser (Harvard Apparatus, Holliston Mass.) with each cell consisting of a semipermeable membrane (2.4 cm working diameter) separating two 1 mL PTFE half-cells (Weder HG, Schildknecht J, Kesselring P. A new equilibrium dialyzing system. American Laboratory. 1971; 10: 15-21). Prior to the study, the dialysis membrane was soaked for approximately one hour in 0.133 M phosphate buffer, pH 7.4. 10% plasma and cell culture media spiked with 1 μM compound (1 mL) were placed into opposite sides of the assembled dialysis cells and the dialysis cells were then rotated slowly in a 37° C. water bath. After the equilibration period, matrix-containing samples from both sides were drained into pre-weighed polypropylene tubes. Post-dialysis 10% plasma samples were transferred into centrifuge tubes containing 1 mL of blank cell culture media. Post-dialysis cell culture media samples were transferred into centrifuge tubes containing 1 mL of blank 10% plasma. All samples weights were measured and recorded for calculations of volume shift and recovery. […]

[6] = 1 uM compound, NADPH
Method in brief: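 Test compounds at 1 uM incubated in duplicate with dog, rat and human liver microsomes (0.5 mg/mL protein) plus NADPH-regenerating system; sampled at 2, 12, 25, 45 and 65 minutes. Parent remaining monitored by LC/MS/MS; Clint calculated from in vitro t1/2.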

[7] = male beagle dogs, IV infusion over 30 minutes, 0.5 or 1.0 mg/kg

COC(=O)N[C@H](C(=O)N[C@@H](Cc1ccccc1)[C@@H](O)CN(Cc1ccc(-c2ccccn2)cc1)NC(=O)[C@@H](NC(=O)OC)C(C)(C)C)C(C)(C)C [atazanavir, methyl N-[(2S)-1-[2-[(2S,3S)-2-hydroxy-3-[[(2S)-2-(methoxycarbonylamino)-3,3-dimethylbutanoyl]amino]-4-phenylbutyl]-2-[(4-pyridin-2-ylphenyl)methyl]hydrazinyl]-3,3-dimethyl-1-oxobutan-2-yl]carbamate, reference compound]
EC50 ([1]; Human immunodeficiency virus 1, IIIB, MT4, high resolution assay, 40 data points, MT-4 cells, read-out: EC50): 9.7 nM
EC95 ([1]; calculated from Hill coefficient and EC50): 25 nM
Hill-coefficient ([1]; high resolution assay, Graph Pad Prism): 3.1
DOG IV CL [2, 7]: 16.7 mL/min/kg
DOG IV T1/2 [2, 7]: 78 min
DOG PO F ([2]; male beagle dogs, oral gavage, PO dose 10 mg/kg): 48%
Vd ([2]; male, beagle, dog, plasma, iv): 0.9 L/kg
Ki [3]: 0.035 nM
Vd ([4]; male, SD, iv): 0.87 L/kg
RAT PO F ([4]; male, SD, po, 5 mg/kg): 38%
RAT IV CL ([4]; iv): 45 mL/min/kg
RAT IV T1/2 ([4]; iv): 22.2 min
Protein Adjusted EC95 [5]: 75 nM
Dog. Pred. Cl. ([6]; dog liver microsomes 0.5 mg/mL): 1.4 L/H/kg
Human Pred Cl. ([6]; human liver microsomes 0.5 mg/mL): 1.07 L/H/kg
Rat. Pred. Cl. ([6]; rat liver microsomes 0.5 mg/mL): 3.7 L/H/kg
